Patent US9670194B2 (Calitor Sciences, LLC, priority 2013, dated 2017)
Read-outs that look alike come from different tables or passages of the source.

Experiments:
PI3K (p120γ) (h) = PI3K (p120γ) (h) (Homo sapiens (Human), UniProt P48736); assay: PI3K (p120γ) (h) non-radioactive HTRF kinase assay; assay type: biochemical
[1] = Pharmacokinetics after intravenous and oral administration in rats; assay type: in vivo, rat; conditions: for clearance (CL) / AUC(0-t) / half-life / Vd: iv dosing; for bioavailability / AUC(0-t) / half-life / Vd: rat, plasma; for bioavailability: oral dose generally 5 or 10 mg/kg; for Vd: read-out: Vss
[2] = Compound stability in human liver microsomes; assay type: in vitro ADME; conditions: for half-life at 5 μM: human liver microsomes 0.5 mg protein/mL, compound 5 μM, NADPH 1.0 mM, 37° C.; for CLint scaled at 5 μM: human liver microsomes, in vivo CLint extrapolated
PI3K (p110δ/p85α) (h) = PI3K (p110δ/p85α) (h) (Homo sapiens (Human), UniProt O00329); assay: PI3K (p110δ/p85α) (h) non-radioactive HTRF kinase assay; assay type: biochemical
PI3K (p110β/p85α) (h) = PI3K (p110β/p85α) (h) (Homo sapiens (Human), UniProt P42338); assay: PI3K (p110β/p85α) (h) non-radioactive HTRF kinase assay; assay type: biochemical
PI3K (p110α/p85α) (h) = PI3K (p110α/p85α) (h) (Homo sapiens (Human), UniProt P42336); assay: PI3K (p110α/p85α) (h) non-radioactive HTRF kinase assay; assay type: biochemical
[3] = Compound stability in rat liver microsomes; assay type: in vitro ADME; conditions: pH 7.4; for half-life at 5 μM: rat liver microsomes 0.5 mg protein/mL, compound 5 μM, NADPH 1.0 mM, 37° C.; for CLint scaled at 5 μM: rat liver microsomes, in vivo CLint extrapolated

Chain of PI3K (p110α/p85α) (h) (P42336 whole entry): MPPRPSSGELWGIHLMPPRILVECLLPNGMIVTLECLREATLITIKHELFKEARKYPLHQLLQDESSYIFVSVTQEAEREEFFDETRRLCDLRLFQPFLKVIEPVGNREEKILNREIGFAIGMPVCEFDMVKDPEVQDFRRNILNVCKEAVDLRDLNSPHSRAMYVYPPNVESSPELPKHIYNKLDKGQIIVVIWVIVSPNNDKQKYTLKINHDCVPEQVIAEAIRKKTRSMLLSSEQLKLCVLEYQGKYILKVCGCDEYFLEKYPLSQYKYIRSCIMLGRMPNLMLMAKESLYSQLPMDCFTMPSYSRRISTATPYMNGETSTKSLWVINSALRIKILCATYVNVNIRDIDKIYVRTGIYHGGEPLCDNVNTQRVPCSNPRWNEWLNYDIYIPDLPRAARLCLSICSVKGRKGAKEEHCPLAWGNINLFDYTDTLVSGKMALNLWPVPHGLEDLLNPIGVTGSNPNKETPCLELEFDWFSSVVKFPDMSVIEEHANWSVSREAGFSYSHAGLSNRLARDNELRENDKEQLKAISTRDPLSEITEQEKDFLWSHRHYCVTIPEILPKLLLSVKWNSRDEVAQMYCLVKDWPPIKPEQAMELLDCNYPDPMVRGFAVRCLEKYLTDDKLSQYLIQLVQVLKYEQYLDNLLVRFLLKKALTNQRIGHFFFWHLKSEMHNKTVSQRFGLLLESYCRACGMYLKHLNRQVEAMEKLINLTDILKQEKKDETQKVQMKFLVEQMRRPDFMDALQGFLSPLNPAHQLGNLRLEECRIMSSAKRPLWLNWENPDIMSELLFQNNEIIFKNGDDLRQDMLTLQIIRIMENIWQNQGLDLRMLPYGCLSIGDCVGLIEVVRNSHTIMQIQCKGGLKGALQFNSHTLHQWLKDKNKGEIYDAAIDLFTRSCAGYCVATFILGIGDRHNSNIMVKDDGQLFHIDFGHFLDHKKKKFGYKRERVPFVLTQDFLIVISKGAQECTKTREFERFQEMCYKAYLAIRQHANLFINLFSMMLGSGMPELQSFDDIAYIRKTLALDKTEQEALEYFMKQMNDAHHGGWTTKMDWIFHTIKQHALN
Chain of PI3K (p110α/p85α) (h) (P27986 whole entry partner): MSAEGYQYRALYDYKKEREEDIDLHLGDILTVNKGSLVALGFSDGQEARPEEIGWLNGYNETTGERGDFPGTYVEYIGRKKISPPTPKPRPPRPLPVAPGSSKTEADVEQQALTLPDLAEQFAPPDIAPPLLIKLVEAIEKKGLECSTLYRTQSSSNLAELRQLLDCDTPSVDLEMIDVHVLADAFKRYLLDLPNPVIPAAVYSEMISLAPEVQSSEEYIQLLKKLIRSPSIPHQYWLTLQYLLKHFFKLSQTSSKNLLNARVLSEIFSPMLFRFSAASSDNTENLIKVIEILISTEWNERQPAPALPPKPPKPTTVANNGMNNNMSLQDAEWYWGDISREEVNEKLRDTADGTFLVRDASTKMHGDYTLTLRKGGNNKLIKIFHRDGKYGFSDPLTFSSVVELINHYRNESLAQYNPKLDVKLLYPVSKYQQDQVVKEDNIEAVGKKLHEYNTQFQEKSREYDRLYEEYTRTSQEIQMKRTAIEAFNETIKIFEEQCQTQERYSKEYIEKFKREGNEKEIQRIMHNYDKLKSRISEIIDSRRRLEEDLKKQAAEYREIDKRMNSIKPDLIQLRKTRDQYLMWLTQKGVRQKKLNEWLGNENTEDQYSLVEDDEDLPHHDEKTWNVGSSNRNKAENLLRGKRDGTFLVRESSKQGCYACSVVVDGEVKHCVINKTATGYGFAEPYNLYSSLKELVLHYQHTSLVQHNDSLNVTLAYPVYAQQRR
Chain of PI3K (p110δ/p85α) (h) (O00329 whole entry): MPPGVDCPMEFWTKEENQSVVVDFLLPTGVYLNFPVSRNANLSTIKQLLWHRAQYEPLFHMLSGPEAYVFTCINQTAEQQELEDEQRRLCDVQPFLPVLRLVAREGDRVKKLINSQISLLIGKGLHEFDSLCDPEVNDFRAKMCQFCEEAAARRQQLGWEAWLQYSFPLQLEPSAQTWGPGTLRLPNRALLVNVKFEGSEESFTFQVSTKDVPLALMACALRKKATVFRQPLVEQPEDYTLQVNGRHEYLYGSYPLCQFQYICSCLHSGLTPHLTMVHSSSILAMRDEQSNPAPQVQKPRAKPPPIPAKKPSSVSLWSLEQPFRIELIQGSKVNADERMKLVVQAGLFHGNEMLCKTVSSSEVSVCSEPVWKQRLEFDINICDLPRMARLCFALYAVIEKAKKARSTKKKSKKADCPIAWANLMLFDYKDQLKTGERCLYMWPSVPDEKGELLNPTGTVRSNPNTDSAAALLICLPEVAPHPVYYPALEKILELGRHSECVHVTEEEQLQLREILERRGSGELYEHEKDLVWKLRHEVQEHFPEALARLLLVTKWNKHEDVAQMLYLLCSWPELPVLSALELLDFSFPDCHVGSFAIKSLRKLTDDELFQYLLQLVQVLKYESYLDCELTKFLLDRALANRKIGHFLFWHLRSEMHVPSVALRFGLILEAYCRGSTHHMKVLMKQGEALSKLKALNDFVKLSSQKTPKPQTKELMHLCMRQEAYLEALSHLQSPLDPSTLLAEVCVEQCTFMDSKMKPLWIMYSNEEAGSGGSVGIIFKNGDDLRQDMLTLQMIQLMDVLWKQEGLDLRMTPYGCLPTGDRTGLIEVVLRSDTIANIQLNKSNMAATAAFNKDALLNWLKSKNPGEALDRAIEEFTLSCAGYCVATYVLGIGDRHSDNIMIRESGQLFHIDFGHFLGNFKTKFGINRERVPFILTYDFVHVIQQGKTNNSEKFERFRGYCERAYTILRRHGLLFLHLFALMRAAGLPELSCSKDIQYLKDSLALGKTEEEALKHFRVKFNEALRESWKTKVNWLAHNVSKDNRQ
Chain of PI3K (p110δ/p85α) (h) (P27986 whole entry partner): as the sequence (P27986 whole entry partner) above
Chain of PI3K (p120γ) (h) (P48736 whole entry): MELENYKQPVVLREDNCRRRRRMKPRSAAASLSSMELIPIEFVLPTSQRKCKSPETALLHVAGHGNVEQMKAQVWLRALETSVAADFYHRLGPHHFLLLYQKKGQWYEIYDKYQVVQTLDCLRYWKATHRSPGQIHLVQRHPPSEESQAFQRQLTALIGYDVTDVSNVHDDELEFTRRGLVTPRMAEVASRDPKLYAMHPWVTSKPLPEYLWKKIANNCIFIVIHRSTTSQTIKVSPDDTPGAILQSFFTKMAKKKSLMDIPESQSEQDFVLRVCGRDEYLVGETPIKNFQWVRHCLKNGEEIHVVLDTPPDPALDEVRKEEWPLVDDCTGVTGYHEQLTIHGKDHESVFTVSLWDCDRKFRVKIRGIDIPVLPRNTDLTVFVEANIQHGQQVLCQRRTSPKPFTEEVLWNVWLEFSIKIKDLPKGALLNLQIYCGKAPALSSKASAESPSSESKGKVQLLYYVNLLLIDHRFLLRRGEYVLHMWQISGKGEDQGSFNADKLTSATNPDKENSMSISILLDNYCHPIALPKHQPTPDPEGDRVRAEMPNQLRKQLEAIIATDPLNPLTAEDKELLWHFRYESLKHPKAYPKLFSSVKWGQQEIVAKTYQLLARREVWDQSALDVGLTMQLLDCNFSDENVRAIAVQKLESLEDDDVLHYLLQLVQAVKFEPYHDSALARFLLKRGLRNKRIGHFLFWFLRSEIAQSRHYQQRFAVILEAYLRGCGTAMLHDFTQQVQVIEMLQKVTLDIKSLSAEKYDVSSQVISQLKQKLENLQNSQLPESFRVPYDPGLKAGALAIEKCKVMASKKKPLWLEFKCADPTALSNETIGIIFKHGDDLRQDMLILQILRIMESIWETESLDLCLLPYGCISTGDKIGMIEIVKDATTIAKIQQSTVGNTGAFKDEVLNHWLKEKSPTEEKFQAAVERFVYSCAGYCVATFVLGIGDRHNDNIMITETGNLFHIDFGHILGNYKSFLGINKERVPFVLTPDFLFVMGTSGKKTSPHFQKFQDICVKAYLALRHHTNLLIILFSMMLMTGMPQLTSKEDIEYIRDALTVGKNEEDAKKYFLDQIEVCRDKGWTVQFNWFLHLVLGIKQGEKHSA
Chain of PI3K (p110β/p85α) (h) (P42338 whole entry): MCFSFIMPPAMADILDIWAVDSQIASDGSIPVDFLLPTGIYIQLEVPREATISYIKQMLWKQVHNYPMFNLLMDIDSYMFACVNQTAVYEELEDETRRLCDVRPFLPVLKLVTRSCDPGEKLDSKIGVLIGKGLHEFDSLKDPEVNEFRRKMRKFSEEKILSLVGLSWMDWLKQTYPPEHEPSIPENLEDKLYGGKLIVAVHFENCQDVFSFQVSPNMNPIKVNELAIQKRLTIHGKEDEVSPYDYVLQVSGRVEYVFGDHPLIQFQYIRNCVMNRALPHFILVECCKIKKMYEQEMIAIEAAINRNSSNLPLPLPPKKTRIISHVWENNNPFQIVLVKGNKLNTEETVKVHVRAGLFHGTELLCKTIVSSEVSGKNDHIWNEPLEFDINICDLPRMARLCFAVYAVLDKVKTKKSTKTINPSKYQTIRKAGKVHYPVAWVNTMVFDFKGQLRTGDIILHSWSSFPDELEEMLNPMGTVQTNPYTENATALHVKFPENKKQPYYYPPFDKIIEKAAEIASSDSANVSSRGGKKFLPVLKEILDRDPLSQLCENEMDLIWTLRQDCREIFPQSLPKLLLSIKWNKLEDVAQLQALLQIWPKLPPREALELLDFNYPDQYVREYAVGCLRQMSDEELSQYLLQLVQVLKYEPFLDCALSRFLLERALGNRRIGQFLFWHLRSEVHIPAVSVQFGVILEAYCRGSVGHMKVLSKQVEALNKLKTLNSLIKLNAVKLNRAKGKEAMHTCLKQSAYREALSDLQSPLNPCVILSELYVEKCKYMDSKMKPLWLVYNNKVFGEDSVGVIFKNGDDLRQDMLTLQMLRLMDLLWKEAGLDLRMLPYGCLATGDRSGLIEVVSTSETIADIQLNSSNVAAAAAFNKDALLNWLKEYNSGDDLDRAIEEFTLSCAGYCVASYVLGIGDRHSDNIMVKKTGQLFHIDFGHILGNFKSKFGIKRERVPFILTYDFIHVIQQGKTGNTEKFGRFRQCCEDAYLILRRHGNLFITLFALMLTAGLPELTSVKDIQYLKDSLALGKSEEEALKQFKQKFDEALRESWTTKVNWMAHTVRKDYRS
Chain of PI3K (p110β/p85α) (h) (P27986 whole entry partner): as the sequence (P27986 whole entry partner) above

IC50 (PI3K (p120γ) (h))	clearance (CL) ([1]; dose 1 mg/kg)	bioavailability ([1]; iv dose 1 mg/kg)	AUC(0-t) ([1]; dose 1 mg/kg)	half-life ([1]; dose 1 mg/kg)	Vd ([1]; dose 1 mg/kg)	half-life at 5 μM [2]	CLint scaled at 5 μM [2]	IC50 (PI3K (p110δ/p85α) (h))	IC50 (PI3K (p110β/p85α) (h))	IC50 (PI3K (p110α/p85α) (h))	half-life at 5 μM [3]	CLint scaled at 5 μM [3]	clearance (CL) ([1]; dose 0.5 mg/kg)	bioavailability ([1]; iv dose 0.5 mg/kg)	AUC(0-t) ([1]; dose 0.5 mg/kg)	half-life ([1]; dose 0.5 mg/kg)	Vd ([1]; dose 0.5 mg/kg)	Compound
0.066 µM	70.8 mL/min/kg	64.5%	237 ng·h/mL	71.4 min	6.23 L/kg	36.7 min	47.4 mL/min/kg	0.002 µM	0.142 µM	0.442 µM	31 min	80.2 mL/min/kg						CC[C@H](Nc1ncnc(N)c1-c1nc(C)no1)c1nc2cccc(Cl)c2c(=O)n1-c1ccccc1 [Ex. 3, (S)-2-(1-((6-amino-5-(3-methyl-1,2,4-oxadiazol-5-yl)pyrimidin-4-yl)amino)-propyl)5-chloro-3-phenylquinazolin-4(3H)-one]
> 3 µM						29.8 min	58.3 mL/min/kg	0.012 µM	1.36 µM	> 3 µM	8.94 min	278 mL/min/kg						CC[C@H](Nc1ncnc(N)c1-c1nnc(C)o1)c1nc2cccc(Cl)c2c(=O)n1-c1cccc(F)c1 [Ex. 34, (S)-2-(1-((6-amino-5-(5-methyl-1,3,4-oxadiazol-2-yl)pyrimidin-4-yl)amino)-propyl)-5-chloro-3-(3-fluorophenyl)quinazolin-4(3H)-one]
						92 min	18.9 mL/min/kg	2.51 µM	> 3 µM		70.1 min	35.4 mL/min/kg	3.5 mL/min/kg	40.2%	2420 ng·h/mL	72 min	0.3 L/kg	CC[C@H](Nc1ncnc(N)c1-c1ncnn1C)c1nc2cccc(Cl)c2c(=O)n1-c1ccccc1 [Ex. 10, 2-((1S)-1-((6-amino-5-(1-methyl-1H-1,2,4-triazol-5-yl)pyrimidin-4-yl)amino)propyl)-5-chloro-3-phenylquinazolin-4(3H)-one]
						78.2 min	22.2 mL/min/kg	1.47 µM	> 3 µM		62.2 min	39.9 mL/min/kg	4.83 mL/min/kg	38.5%	1690 ng·h/mL	157 min	0.59 L/kg	CC[C@H](Nc1ncnc(N)c1-c1ccccn1)c1nc2cccc(Cl)c2c(=O)n1C1CC1 [Ex. 11, (S)-2-(1-((6-amino-5-(pyridin-2-yl)pyrimidin-4-yl)amino)propyl)-5-chloro-3-cyclopropylquinazolin-4(3H)-one]
0.269 µM						47.9 min	36.3 mL/min/kg	0.018 µM	1.32 µM	> 3 µM	17.9 min	139 mL/min/kg						Cc1noc(-c2c(N)ncnc2N[C@@H](C)c2nc3cccc(F)c3c(=O)n2-c2ccccc2)n1 [Ex. 63, (S)-2-(1-((6-amino-5-(3-methyl-1,2,4-oxadiazol-5-yl)pyrimidin-4-yl)amino)ethyl)-5-fluoro-3-phenylquinazolin-4(3H)-one]
0.384 µM						53.5 min	32.5 mL/min/kg	0.003 µM			17.5 min	142 mL/min/kg	47.3 mL/min/kg	32.3%	355 ng·h/mL	46.8 min	3.68 L/kg	CC[C@H](Nc1ncnc(N)c1-c1nnc(C)o1)c1nc2cccc(Cl)c2c(=O)n1-c1ccccc1 [Ex. 1, (S)-2-(1-((6-amino-5-(5-methyl-1,3,4-oxadiazol-2-yl)pyrimidin-4-yl)amino)-propyl)-5-chloro-3-phenylquinazolin-4(3H)-one]
	54.8 mL/min/kg	45.7%	300 ng·h/mL	79.8 min	5.82 L/kg	19.4 min	89.7 mL/min/kg	0.246 µM	2.78 µM		10.5 min	237 mL/min/kg						CC[C@H](Nc1ncnc(N)c1-c1ncc(C)o1)c1nc2cccc(Cl)c2c(=O)n1C1CC1 [Ex. 7, (S)-2-(1-((6-amino-5-(5-methyloxazol-2-yl)pyrimidin-4-yl)amino)propyl)-5-chloro-3-cyclopropylquinazolin-4(3H)-one]
